Where two headings read alike, the source gives them in different places.
Assays:
[1] = target: T1, Dipeptidyl peptidase 9 (DPP9) (Homo sapiens, UniProt Q86TI2); test: Serine protease inhibition: DPP9; format: biochemical, mammalian; settings: Table 8B; read-out: IC50 DPP9
T1 construct: purchased BPS Bioscience 80090
Protocol: (§1) The effect of selected BLIs on the enzymatic activity of some common mammalian serine proteases was evaluated.
(§2) 50 μl of the diluted enzyme was mixed with 50 μl of inhibitor at various concentrations and 50 μl of corresponding buffer (Table 7). Reaction mixtures were incubated for 10 min at 37° C. Subsequently, 50 μl of corresponding substrate (Table 7) was added and absorbance or fluorescence was monitored for 30 min on SpectraMax M2 plate reader (Molecular Devices). 4-(2-Aminoethyl)benzenesulfonyl fluoride hydrochloride (AEBSF) and leupeptin were used as positive controls. Rates of reaction were calculated and presented relative to “no treatment” control.

CathepsinG = target: T2, CathepsinG (Homo sapiens, UniProt P08311); test: Serine protease inhibition: cathepsin G; format: biochemical, mammalian; settings: Table 8B
T2 construct: purchased EMD Millipore 219373
T2 sequence (P08311 21-244): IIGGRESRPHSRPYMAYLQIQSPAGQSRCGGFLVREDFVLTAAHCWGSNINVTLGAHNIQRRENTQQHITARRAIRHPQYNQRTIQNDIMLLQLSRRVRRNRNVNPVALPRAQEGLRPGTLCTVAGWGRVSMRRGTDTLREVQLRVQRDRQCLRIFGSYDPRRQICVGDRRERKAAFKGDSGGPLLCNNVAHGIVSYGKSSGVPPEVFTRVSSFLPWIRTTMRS
Method in brief: (§3)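 Enzyme + inhibitor (various concns), enzyme-specific buffer, 10 min, 37° C; add matching substrate; read absorbance/fluorescence 30 min. Rates vs no-treatment control. AEBSF, leupeptin as positive controls.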

PAM1154/KPC-2 = test: Biapenem potentiation in PAM1154/KPC-2 (MexAB-OprM lacking); format: cell-based, Pseudomonas aeruginosa
Protocol: (§4) Efflux of BLIs from Pseudomonas aeruginosa by the MexAB-OprM efflux pump was also evaluated. […] Due to expression of KPC-2 both strains became resistant to biapenem. […] Potency of BLIs to potentiate biapenem in these strains was determined. […] The ratio of MPC64 values for each BLI in PAM1032/KPC-2 (efflux proficient) and PAM1154/KPC-2 (efflux deficient) was determined to generate the Efflux Index (EI).

KPC-2 = KPC-2 (Klebsiella pneumoniae, UniProt Q9F663); test: Inhibition of nitrocefin cleavage by purified KPC-2; format: biochemical; settings: nitrocefin reporter substrate, purified enzyme; read-out: Ki (KPC-2, NCF)
Sequence of KPC-2 (Q9F663 25-293, looked up, species assumed): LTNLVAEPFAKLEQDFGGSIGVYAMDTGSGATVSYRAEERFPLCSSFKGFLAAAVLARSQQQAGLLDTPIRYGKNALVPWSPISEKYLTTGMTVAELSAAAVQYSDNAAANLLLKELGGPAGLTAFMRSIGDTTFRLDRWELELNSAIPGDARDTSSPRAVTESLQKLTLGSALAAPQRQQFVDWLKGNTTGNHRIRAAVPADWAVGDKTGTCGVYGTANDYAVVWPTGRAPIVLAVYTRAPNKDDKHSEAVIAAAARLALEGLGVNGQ
Method in brief: (§5)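 Readout: nitrocefin hydrolysis, A490 recorded every 10 sec over 10 min. Enzyme and inhibitor (varied concentrations) preincubated 10 min, RT, in reaction buffer before substrate addition.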

CathepsinA = target: T3, CathepsinA (Homo sapiens, UniProt P10619); test: Serine protease inhibition: cathepsin A; format: biochemical, mammalian; settings: Table 8B; read-out: IC50 CathepsinA
T3 construct: purchased R&D Systems 1049-SE
T3 sequence (P10619 29-480): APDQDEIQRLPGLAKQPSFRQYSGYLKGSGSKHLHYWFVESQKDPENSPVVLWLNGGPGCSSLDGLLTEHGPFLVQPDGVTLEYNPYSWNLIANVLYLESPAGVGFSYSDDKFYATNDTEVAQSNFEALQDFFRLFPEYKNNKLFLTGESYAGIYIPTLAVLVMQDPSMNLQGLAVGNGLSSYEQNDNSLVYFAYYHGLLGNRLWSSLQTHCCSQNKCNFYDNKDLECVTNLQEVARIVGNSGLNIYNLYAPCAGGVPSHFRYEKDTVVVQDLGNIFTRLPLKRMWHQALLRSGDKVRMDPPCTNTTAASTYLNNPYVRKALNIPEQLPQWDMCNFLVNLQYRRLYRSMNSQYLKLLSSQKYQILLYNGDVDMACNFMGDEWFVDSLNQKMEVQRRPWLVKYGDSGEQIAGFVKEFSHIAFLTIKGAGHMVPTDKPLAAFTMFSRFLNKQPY
Method in brief: as §3

[2] = target: T4, Dipeptidyl peptidase 8 (DPP8) (Homo sapiens, UniProt Q6V1X1); test: Serine protease inhibition: DPP8; format: biochemical, mammalian; settings: Table 8B; read-out: IC50 DPP8
T4 construct: purchased BPS Bioscience 80080
T4 sequence (Q6V1X1 whole entry): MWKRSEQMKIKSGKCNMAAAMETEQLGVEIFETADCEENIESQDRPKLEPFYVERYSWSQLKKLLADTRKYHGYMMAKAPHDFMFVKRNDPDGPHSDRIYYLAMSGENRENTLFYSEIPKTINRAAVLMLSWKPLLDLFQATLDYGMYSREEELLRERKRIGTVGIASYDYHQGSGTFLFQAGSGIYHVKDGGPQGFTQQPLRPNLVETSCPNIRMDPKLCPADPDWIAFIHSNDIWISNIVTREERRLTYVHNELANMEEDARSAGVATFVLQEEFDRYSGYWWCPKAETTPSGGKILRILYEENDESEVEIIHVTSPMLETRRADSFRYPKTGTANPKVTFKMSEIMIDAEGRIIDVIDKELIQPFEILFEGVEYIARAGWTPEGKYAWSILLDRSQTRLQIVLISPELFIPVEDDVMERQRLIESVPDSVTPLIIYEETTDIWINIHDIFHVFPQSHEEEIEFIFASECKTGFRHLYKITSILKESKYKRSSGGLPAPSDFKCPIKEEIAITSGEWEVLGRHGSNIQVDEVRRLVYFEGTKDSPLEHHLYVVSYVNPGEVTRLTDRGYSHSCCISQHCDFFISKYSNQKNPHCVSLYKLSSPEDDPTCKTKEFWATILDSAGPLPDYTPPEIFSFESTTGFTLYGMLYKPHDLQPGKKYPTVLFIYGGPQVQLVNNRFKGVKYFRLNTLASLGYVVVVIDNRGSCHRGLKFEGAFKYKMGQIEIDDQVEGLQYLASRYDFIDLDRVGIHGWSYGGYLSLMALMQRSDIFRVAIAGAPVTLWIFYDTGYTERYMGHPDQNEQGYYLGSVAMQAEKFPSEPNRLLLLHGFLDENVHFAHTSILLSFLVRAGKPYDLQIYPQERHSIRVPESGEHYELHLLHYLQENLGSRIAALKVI
Protocol: as §1, §2

PAM1032/KPC-2 = test: Biapenem potentiation in PAM1032/KPC-2 (MexAB-OprM overexpressed); format: cell-based, Pseudomonas aeruginosa
Protocol: as §4

[3] = target: T5, Dipeptidyl peptidase 7 (DPP7) (Homo sapiens, UniProt Q9UHL4); test: Serine protease inhibition: DPP7; format: biochemical, mammalian; settings: Table 8B; read-out: IC50 DPP7
T5 construct: purchased R&D Systems 3438-SE
Protocol: as §1, §2

EC1010 (CMY-6) = format: cell-based
Neutrophil elastase = target: T6, Neutrophil elastase (Homo sapiens, UniProt P08246); test: Serine protease inhibition: neutrophil elastase; format: biochemical, mammalian; settings: Table 8B; read-out: IC50 Neutrophil elastase
T6 construct: purchased Calbiochem 324681
T6 sequence (P08246 30-267): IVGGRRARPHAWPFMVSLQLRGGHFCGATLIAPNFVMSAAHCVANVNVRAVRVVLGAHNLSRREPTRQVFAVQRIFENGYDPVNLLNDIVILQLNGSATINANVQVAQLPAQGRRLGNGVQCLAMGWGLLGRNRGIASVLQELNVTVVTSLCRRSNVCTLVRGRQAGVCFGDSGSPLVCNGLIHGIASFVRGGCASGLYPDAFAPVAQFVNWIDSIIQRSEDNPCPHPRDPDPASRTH
Protocol: as §1, §2

SHV-12 = SHV-12 (Klebsiella pneumoniae, UniProt P0AD64, E235K/G234S/L31Q); test: Inhibition of nitrocefin cleavage by purified SHV-12; format: biochemical; settings: nitrocefin reporter substrate, purified enzyme; read-out: Ki (SHV-12, NCF)
Sequence of SHV-12 (P0AD64 22-286 L31Q/G234S/E235K): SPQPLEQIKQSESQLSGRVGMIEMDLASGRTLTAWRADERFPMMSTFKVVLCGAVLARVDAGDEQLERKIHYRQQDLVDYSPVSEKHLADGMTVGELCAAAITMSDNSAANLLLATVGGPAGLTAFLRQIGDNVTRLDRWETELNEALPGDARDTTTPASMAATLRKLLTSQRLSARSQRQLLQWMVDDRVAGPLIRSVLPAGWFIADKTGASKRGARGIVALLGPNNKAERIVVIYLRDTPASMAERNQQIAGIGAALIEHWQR
Method in brief: as §5

Thrombin = target: T7, Thrombin (Homo sapiens, UniProt P00734); test: Serine protease inhibition: thrombin; format: biochemical, mammalian; settings: Table 8A, class symbols; read-out: IC50 Thrombin
T7 construct: Thrombin; MPBio; 19491880; purchased MPBio 19491880
Protocol: as §1, §2

Chymase = target: T8, Chymase (Homo sapiens, UniProt P23946); test: Serine protease inhibition: chymase; format: biochemical, mammalian; settings: Table 8A, class symbols; read-out: IC50 Chymase
T8 construct: purchased Enzo Lifescience BML-SE281
T8 sequence (P23946 22-247): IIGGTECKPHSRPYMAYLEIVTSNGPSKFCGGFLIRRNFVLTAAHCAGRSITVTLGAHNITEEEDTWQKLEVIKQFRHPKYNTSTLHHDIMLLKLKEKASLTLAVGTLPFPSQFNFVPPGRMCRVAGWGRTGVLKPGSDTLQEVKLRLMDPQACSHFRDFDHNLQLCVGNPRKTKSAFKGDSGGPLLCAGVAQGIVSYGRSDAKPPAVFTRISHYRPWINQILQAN
Protocol: as §1, §2

KP1009 (CTX-M-15) = test: Potentiation of tigemonam, strain KP1009; settings: minimum BLI concentration inhibiting growth with 4 μg/mL tigemonam
ec308 (SHV-5) = test: Potentiation of aztreonam, strain ec308; format: cell-based; settings: minimum BLI concentration inhibiting growth with 4 μg/mL aztreonam
[4] = BLI potency to decrease biapenem MIC 64-fold, 32 to 0.5 μg/ml, efflux proficient strain

T1 sequence (Q86TI2 whole entry): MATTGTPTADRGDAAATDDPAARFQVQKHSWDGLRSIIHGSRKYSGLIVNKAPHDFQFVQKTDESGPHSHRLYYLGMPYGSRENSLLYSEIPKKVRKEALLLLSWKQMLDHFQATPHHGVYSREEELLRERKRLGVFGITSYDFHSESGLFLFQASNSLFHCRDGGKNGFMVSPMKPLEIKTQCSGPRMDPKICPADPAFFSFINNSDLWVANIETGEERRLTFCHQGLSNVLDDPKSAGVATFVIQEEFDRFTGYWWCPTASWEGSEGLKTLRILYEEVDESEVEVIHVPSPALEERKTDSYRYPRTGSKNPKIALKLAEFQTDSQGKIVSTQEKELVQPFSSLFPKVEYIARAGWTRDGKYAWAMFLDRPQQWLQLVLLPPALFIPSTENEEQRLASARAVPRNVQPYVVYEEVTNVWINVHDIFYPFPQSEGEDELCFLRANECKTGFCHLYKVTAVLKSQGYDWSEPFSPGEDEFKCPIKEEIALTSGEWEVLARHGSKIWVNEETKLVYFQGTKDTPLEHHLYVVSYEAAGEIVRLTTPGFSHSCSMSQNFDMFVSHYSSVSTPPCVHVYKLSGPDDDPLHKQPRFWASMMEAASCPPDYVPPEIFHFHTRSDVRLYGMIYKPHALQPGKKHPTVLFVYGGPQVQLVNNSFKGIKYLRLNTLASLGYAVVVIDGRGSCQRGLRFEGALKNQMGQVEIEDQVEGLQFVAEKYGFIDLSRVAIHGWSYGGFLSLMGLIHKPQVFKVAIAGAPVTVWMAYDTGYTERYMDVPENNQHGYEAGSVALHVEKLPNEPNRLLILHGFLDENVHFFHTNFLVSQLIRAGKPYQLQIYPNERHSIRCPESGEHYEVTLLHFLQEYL

Compound	IC50 [1]	IC50 (CathepsinG)	PAM1154/KPC-2 Biapenem MPC64 (PAM1154/KPC-2)	Ki (KPC-2)	IC50 (CathepsinA)	IC50 [2]	PAM1032/KPC-2 Biapenem MPC64 (PAM1032/KPC-2; [4])	IC50 [3]	TIG MPC4 CMY-6 EC1010 (EC1010 (CMY-6))	IC50 (Neutrophil elastase)	Ki (SHV-12)	IC50 (Thrombin)	IC50 (Chymase)	TIG MPC4 CTX-M-15 KP1009 (KP1009 (CTX-M-15))	AZT MPC4 SHV-5 ec308 (ec308 (SHV-5))	PAM1032/KPC-2 Biapenem MPC64 (PAM1032/KPC-2)
O=C(Cc1cccs1)N[C@H]1Cc2cccc(C(=O)O)c2OB1O [CPD A, reference compound]	15 to 500 µM	< 15 µM	X (key: X = Less than 10; Y = 10 to 40; Z Greater than 40)	> 0.01 µM	< 15 µM	15 to 500 µM	Z (Z Greater than 40)	> 500 µM	X (key: X = MIC of less than 1 μg/mL; Y = MIC of 1 μg/mL to 10 μg/mL; Z = MIC of greater than 10 μg/mL)	15 to 500 µM	< 0.001 µM	< 300 µM	< 300 µM	Y (Y = MIC of 1 μg/mL to 10 μg/mL)	X (X = MIC of less than 1 μg/mL)	–
O=C(CSC(F)F)N[C@H]1Cc2cccc(C(=O)O)c2OB1O [Compound 3, (R)-3-(2-(difluoromethylthio)acetamido)-2-hydroxy-3,4-dihydro-2H-benzo[e][1,2]oxaborinine-8-carboxylic acid]	> 500 µM	< 15 µM	X (key: X = Less than 10; Y = 10 to 40; Z Greater than 40)	> 0.01 µM	< 15 µM	> 500 µM	Z (Z Greater than 40)	> 500 µM	X (key: X = MIC of less than 1 μg/mL; Y = MIC of 1 μg/mL to 10 μg/mL; Z = MIC of greater than 10 μg/mL)	15 to 500 µM	< 0.001 µM	> 800 µM	300 to 800 µM	X (X = MIC of less than 1 μg/mL)	X (X = MIC of less than 1 μg/mL)	–
O=CN[C@H]1Cc2cccc(C(=O)O)c2OB1O [Compound 4, (R)-3-formamido-2-hydroxy-3,4-dihydro-2H-benzo[e][1,2]oxaborinine-8-carboxylic acid]	> 500 µM	15 to 500 µM	X (key: X = Less than 10; Y = 10 to 40; Z Greater than 40)	–	> 500 µM	> 500 µM	–	> 500 µM	X (key: X = MIC of less than 1 μg/mL; Y = MIC of 1 μg/mL to 10 μg/mL; Z = MIC of greater than 10 μg/mL)	> 500 µM	0.001 to 0.01 µM	> 800 µM	> 800 µM	Y (Y = MIC of 1 μg/mL to 10 μg/mL)	Y (Y = MIC of 1 μg/mL to 10 μg/mL)	X (key: X = Less than 10; Y = 10 to 40; Z Greater than 40)
Nc1nnc(SCC(=O)N[C@H]2Cc3cccc(C(=O)O)c3OB2O)s1 [Compound 5, (R)-3-(2-(5-amino-1,3,4-thiadiazol-2-ylthio)acetamido)-2-hydroxy-3,4-dihydro-2H-benzo[e][1,2]oxaborinine-8-carboxylic acid]	> 500 µM	< 15 µM	X (key: X = Less than 10; Y = 10 to 40; Z Greater than 40)	> 0.01 µM	15 to 500 µM	15 to 500 µM	Y (Y = 10 to 40)	> 500 µM	X (key: X = MIC of less than 1 μg/mL; Y = MIC of 1 μg/mL to 10 μg/mL; Z = MIC of greater than 10 μg/mL)	> 500 µM	–	> 800 µM	300 to 800 µM	X (X = MIC of less than 1 μg/mL)	X (X = MIC of less than 1 μg/mL)	–
O=C(CSc1nncs1)N[C@H]1Cc2cccc(C(=O)O)c2OB1O [Compound 7, (R)-3-(2-(1,3,4-thiadiazol-2-ylthio)acetamido)-2-hydroxy-3,4-dihydro-2H-benzo[e][1,2]oxaborinine-8-carboxylic acid]	> 500 µM	15 to 500 µM	X (key: X = Less than 10; Y = 10 to 40; Z Greater than 40)	> 0.01 µM	15 to 500 µM	15 to 500 µM	Z (Z Greater than 40)	> 500 µM	X (key: X = MIC of less than 1 μg/mL; Y = MIC of 1 μg/mL to 10 μg/mL; Z = MIC of greater than 10 μg/mL)	> 500 µM	< 0.001 µM	> 800 µM	> 800 µM	X (X = MIC of less than 1 μg/mL)	X (X = MIC of less than 1 μg/mL)	–

— patent US9101638B2, “Boronic acid derivatives and therapeutic uses thereof” (Rempex Pharmaceuticals, Inc., priority 2013, dated 2015)
